# The source made the active and inactive calls.
# Tests used:
# [1] = non-specific 3'UTR reporter inhibition in Clone20-Shn3RL – cell-based, Renilla luciferase, cherry-picked, counter-screen for Shn3 inhibitor project, dose response (AID 624133); format: functional
# [2] = Shn3 3'UTR reporter signal decrease – cell-based, Clone20 osteoblasts, firefly luciferase, cherry-pick, set 2, Schnurri-3 inhibitor project, dose response (AID 720490); format: functional;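 also: actives lower the luminescence signal as inhibitors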
# [3] = loss of viability in HepG2 cells – cell-based, CellTiter-Glo, cherry-picked, cytotoxicity control for Shn3 inhibitor project, dose response (AID 624134); format: functional
# [4] = EF1alpha-driven Renilla reporter with control 3'UTR suppression – Clone20-Shn3RL cells, dual-Glo, cherry-pick, set 2, counter-screen for Shn3 3'UTR targeting project, dose response (AID 720724); format: functional, cell-based; conditions: Dual-Go Shn3RL
# Galanin receptor type 3 = Galanin receptor type 3 (Homo sapiens, UniProt O60755); experiment: Fluorescence-based cell-based primary high throughput dose response assay to identify antagonists of the Galanin Receptor 3 (GalR3).; format: functional
# Sequence of Galanin receptor type 3 (O60755 whole entry): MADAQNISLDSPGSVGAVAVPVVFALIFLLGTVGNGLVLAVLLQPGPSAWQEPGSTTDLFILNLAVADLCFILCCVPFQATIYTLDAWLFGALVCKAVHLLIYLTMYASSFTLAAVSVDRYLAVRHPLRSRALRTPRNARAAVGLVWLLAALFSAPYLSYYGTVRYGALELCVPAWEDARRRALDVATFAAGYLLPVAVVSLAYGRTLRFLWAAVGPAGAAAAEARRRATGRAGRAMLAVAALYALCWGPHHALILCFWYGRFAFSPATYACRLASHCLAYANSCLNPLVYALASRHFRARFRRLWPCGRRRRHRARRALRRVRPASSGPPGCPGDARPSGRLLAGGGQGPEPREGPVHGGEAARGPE
# cells [5] = format: functional, cell-based; conditions: HEK-CNG
# [6] = reduction of Shn3 3'UTR-driven luciferase in osteoblasts – cell-based, Clone20 osteoblasts, firefly luciferase, cherry-picked, dose response (AID 624132); format: functional;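 also: firefly luciferase luminescence from reporter carrying the Shn3 3'UTR in osteoblasts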
# [7] = target: T1, Trace amine-associated receptor 1 (Homo sapiens, UniProt Q96RJ0); experiment: Counterscreen for agonists of the human trace amine associated receptor 1 (hTAAR1): Fluorescence-based cell-based high throughput dose response assay to identify hTAAR1 agonist that also desensitize TAAR1 receptor response.; format: functional
# T1 sequence (Q96RJ0 whole entry): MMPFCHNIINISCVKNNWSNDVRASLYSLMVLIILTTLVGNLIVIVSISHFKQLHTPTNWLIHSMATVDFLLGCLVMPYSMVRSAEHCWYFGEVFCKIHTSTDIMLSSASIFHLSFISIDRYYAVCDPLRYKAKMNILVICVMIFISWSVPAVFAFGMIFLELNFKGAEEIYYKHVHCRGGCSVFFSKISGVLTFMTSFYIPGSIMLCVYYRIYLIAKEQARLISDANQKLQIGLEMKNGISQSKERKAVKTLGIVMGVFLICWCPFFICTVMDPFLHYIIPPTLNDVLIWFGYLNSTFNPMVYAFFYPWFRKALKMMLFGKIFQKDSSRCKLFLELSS
# [8] = target: T1, Trace amine-associated receptor 1; experiment: Fluorescence-based cell-based high throughput dose response assay to identify agonists of the human trace amine associated receptor 1 (TAAR1).; format: functional
# cells [9] = format: functional, cell-based
# cells [10] = format: functional, cell-based; remark: listed apart in the source
# [11] = test system: Streptococcus sp. 'group A'; experiment: Streptococcus pyogenes SK(-)GAS viability under kanamycin – luminescence, BacTiterGlo, confirmation, counter-screen for streptokinase expression inhibitor project, dose response (AID 1900); format: functional, organism-based
# Streptococcus = experiment: GAS UMAA2166 growth inhibition – luminescence, BacTiterGlo, counter-screen for streptokinase expression inhibitor project, dose response (AID 1915); format: functional, organism-based;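 also: potency for reduction of bacterial viability or growth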
# Protein skinhead-1 = target: T2, Protein skinhead-1 (Caenorhabditis elegans, UniProt P34707); format: functional
# T2 sequence (P34707 whole entry): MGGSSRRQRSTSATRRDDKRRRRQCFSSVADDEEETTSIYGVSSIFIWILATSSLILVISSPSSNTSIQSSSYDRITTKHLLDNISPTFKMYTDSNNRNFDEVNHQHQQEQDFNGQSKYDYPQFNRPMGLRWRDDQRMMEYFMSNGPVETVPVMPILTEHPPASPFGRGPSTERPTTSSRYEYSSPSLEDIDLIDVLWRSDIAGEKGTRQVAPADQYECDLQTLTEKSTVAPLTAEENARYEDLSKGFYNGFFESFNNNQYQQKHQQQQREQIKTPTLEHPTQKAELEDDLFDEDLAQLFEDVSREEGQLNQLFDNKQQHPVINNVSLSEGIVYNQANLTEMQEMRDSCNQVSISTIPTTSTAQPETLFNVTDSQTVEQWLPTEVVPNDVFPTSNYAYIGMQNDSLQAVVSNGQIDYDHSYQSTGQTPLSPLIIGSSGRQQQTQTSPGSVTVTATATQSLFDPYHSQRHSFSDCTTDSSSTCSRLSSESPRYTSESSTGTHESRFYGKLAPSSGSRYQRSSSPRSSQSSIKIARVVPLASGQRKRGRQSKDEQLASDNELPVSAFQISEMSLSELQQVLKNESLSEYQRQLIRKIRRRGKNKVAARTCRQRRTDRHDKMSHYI
# [12] = viability of uninfected HEp-2 cells – cell-based, HTS, cytotoxicity control for RSV inhibitor project, dose response (AID 2410); format: functional; conditions: human respiratory syncytial virus
# [13] = toxicity toward HepG2 liver cells – cell-based, plate reader, cherry-pick, antagonist series, cytotoxicity control, dose response (AID 743416); format: functional
# cells [14] = experiment: cells
# [15] = blockade of melanocortin 4 receptor signaling – cell-based, plate reader, cherry pick, counter-screen for LGR2 antagonist project, dose response (AID 743444); format: functional;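 also: transfected HEK 293 cells stimulated with alpha-MSH peptide; potency of inhibitors of the alpha-MSH evoked signal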
# [16] = blockers of bursicon-stimulated LGR2 cAMP reporter – cell-based, HEK293, CRE-luciferase reporter, cherry pick, set 2, dose response (AID 743343); format: functional;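 also: transfected cells were stimulated with diluted bursicon conditioned medium after compound addition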
# Streptokinase A = target: T3, Streptokinase A (Streptococcus pyogenes serotype M1, UniProt P10520); experiment: viability-normalized secreted streptokinase activity reduction – plasminogen activation absorbance, OD405, dose response (AID 1914); format: functional, Streptococcus pyogenes M1 GAS;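 also: secreted streptokinase activity via plasminogen activation per viability signal from cell pellet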
# T3 sequence (P10520 whole entry): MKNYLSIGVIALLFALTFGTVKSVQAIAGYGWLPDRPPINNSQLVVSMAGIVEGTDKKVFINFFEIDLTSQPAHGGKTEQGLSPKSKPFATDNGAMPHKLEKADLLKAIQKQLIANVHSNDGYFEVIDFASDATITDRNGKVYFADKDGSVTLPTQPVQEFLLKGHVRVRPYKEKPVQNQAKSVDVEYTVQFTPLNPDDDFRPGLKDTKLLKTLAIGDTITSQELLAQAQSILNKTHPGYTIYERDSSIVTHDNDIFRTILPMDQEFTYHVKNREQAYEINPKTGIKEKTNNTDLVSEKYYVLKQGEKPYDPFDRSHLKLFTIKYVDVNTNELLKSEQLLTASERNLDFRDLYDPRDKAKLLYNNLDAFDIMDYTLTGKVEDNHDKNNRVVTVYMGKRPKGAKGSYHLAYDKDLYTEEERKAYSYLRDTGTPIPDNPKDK
# [17] = A549 cell cytotoxicity, dose response, cytotoxicity control, plate reader, cherry-pick, antagonist series (AID 743412); format: functional, cell-based
# [18] = OVCAR4 cell viability loss – plate reader, dry powder, SA11, cytotoxicity control for PAX8 inhibitor project, dose response (AID 743150); format: functional, cell-based; conditions: OVCAR-4
# [19] = PAX5 cellular inhibition readout – cell-based, plate reader, dry powder samples, selectivity assay for PAX8 inhibitor project, dose response (AID 743047); format: functional;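 also: HEK293 cells carrying a Pax5 driven CD19 promoter luciferase reporter; potency of inhibitors that lower reporter luminescence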
# [20] = IGROV1 cell killing – plate reader, dry powder samples, PAX8 inhibitor project, dose response (AID 743043); format: functional, cell-based; conditions: IGROV-1
# [21] = inhibitors acting on PAX2 in cells – cell-based, plate reader, dry powder samples, selectivity assay for PAX8 inhibitor project, dose response (AID 743048); format: functional;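 also: HEK293 cells carrying a WT1 promoter luciferase reporter driven by expressed Pax2; potency is for inhibition of Pax2 driven reporter signal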
# Paired box protein Pax-8 = Paired box protein Pax-8 (Homo sapiens, UniProt Q06710); experiment: PAX8 transcriptional activity inhibition in RMG-I – RMG-I cells, luciferase, cherry-pick, dose response (AID 687027); format: functional, cell-based;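 also: luciferase reporter driven by Pax8 target thyroperoxidase promoter measured by SteadyGlo luminescence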
# Sequence of Paired box protein Pax-8 (Q06710 whole entry): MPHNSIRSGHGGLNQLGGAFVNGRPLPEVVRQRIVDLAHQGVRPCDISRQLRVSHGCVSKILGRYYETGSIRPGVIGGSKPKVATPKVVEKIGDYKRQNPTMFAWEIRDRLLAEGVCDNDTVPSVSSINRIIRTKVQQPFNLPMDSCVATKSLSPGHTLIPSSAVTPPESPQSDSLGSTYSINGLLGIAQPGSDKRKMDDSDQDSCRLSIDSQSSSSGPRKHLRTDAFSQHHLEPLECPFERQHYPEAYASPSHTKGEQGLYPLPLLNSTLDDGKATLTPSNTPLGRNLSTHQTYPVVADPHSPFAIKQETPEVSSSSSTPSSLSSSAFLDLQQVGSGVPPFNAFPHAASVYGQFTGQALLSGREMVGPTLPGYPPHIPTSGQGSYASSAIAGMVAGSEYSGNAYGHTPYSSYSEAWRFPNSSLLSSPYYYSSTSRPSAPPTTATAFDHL
# [22] = COV434 cell viability loss – plate reader, dry powder, SA7, cytotoxicity control for PAX8 inhibitor project, dose response (AID 743145); format: functional, cell-based
# [23] = OVCAR-3 cell viability loss – plate reader, dry powder samples, PAX8 inhibitor project, dose response (AID 743044); format: functional, cell-based
# [24] = OV-90 cell viability loss – plate reader, dry powder, SA8, PAX8 inhibitor project, dose response (AID 743149); format: functional, cell-based
# [25] = COV362 cell viability loss – plate reader, dry powder, SA12, cytotoxicity control for PAX8 inhibitor project, dose response (AID 743144); format: functional, cell-based
# [26] = OVCAR8 cell viability loss – plate reader, dry powder samples, PAX8 project, dose response (AID 743197); format: functional, cell-based; conditions: OVCAR-8
# [27] = PAX8-dependent cell viability loss – plate reader, dry powder, dose response (AID 743049); format: functional, cell-based
# [28] = viability loss in HepG2 hepatoma cells – cell-based, ATP luminescence, cherry-pick, activator set 2, cytotoxicity control, dose response (AID 1053143); format: functional
structure (smiles),measurement,setting,value
Cc1ccnc(SCC(=O)Nc2sc3c(c2C#N)CCCC3)n1,AC50,[1],5 µM (active)
same,AC50,[2],1.18 µM (active)
same,AC50,[3],66.8 µM (active)
same,AC50,[4],11.9 µM (active)
same,IC50,Galanin receptor type 3,> 1.11 µM (active)
same,EC50,cells [5],> 29.9 µM (inactive)
same,AC50,[6],0.955 µM (active)
O=C(NCCc1ccccc1)C1CCCN(S(=O)(=O)c2cccc3nsnc23)C1 (stereo not drawn),IC50,[7],2.2 µM (active)
same,EC50,[8],0.669 µM (active)
same,EC50,cells [9],> 29.9 µM (inactive)
same,IC50,cells [10],> 29.9 µM (inactive)
Cc1ccc2nc(-c3ccc(N)cc3)sc2c1,EC50,[11],> 150 µM (not active)
same,EC50,Streptococcus,> 150 µM (not active)
same,IC50,Protein skinhead-1,> 100 µM (inactive)
same,CC50,[12],> 50 µM (active)
same,AC50,[13],50.6 µM (active)
same,IC50,cells [14],29.7 µM (active)
same,AC50,[15],1.55 µM (active)
same,AC50,[16],1.88 µM (active)
same,EC50,Streptokinase A,> 150 µM (not active)
same,AC50,[17],51.3 µM (active)
COc1ccc(CN(C)C[C@H]2OCCCC[C@H](C)Oc3ccc(NC(=O)Nc4ccc(C(F)(F)F)cc4)cc3C(=O)N([C@@H](C)CO)C[C@H]2C)cc1,AC50,[18],40.5 µM (active)
same,AC50,[19],> 70 µM (inactive)
same,AC50,[20],25.1 µM (active)
same,AC50,[21],31.6 µM (active)
same,AC50,Paired box protein Pax-8,5.98 µM (active)
same,AC50,[22],34.4 µM (active)
same,AC50,[23],22.4 µM (active)
same,AC50,[24],33.7 µM (active)
same,AC50,[25],> 70 µM (inactive)
same,AC50,[26],22 µM (active)
same,AC50,[27],14.4 µM (active)
O=C(Nc1ccc2c(c1)CCC2)Nc1ccccc1Cl,AC50,[28],26 µM (active)

# Source: ChEMBL document CHEMBL1201862, “PubChem BioAssay data set” (2004)
